# Experimental data reported in ChEMBL document CHEMBL3400114, “The design, synthesis and biological evaluation of conformationally restricted 4-substituted-2,6-dimethylfuro[2,3-d]pyrimidines as multi-targeted receptor tyrosine kinase and microtubule inhibitors as potential antitumor agents” (Bioorg Med Chem, 2015).
# Assays:
# [1] = system: A-431; assay: Antiproliferative activity against human A431 cells after 48 hrs by sulforhodamine B assay; type: functional, cell-based; conditions: A-431, 48 h
# [2] = Induction of microtubule depolymerization in rat A10 cells after 18 hrs by indirect immunofluorescence assay; type: cell-based
# [3] = Antiangiogenic activity in VEGF-165 and bFGF-stimulated chicken embryo chorioallantoic membrane assessed as inhibition of blood vessel formation after 40 hrs by microscopy; type: functional, tissue-based, Gallus gallus
# [4] = system: MDA-MB-435; assay: Antiproliferative activity against human MDA-MB-435 cells after 48 hrs by sulforhodamine B assay; type: functional, cell-based; conditions: MDA-MB-435, 48 h
# [5] = system: HeLa; assay: Antiproliferative activity against human HeLa cells overexpressing wild type beta3 tubulin after 48 hrs by sulforhodamine B assay; type: functional, cell-based
# [6] = Antiproliferative activity against human SKOV3 cells overexpressing wild type beta3 tubulin after 48 hrs by sulforhodamine B assay; type: functional, cell-based; conditions: SK-OV-3, 48 h
# [7] = Ratio of EC50 for microtubule depolymerization in rat A10 cells to IC50 for human MDA-MB-435 cells
# [8] = system: HeLa; assay: Antiproliferative activity against human HeLa cells after 48 hrs by sulforhodamine B assay; type: functional, cell-based
# [9] = system: HeLa; assay: Resistance ratio of IC50 for human HeLa cells overexpressing wild type beta3 tubulin to IC50 for human HeLa cells; type: functional
# [10] = Antiproliferative activity against human SKOV3-MDR1-M6/6 cells overexpressing wild type beta3 tubulin after 48 hrs by sulforhodamine B assay; type: functional, cell-based; conditions: SKOV3-MDR1-M6/6, 48 h
# [11] = system: SK-OV-3; assay: Resistance ratio of IC50 for human SKOV3-MDR1-M6/6 cells to IC50 for human SKOV3 cells; type: functional
# [12] = Growth inhibition of human EKVX cells after 48 hrs by sulforhodamine B assay; type: functional
# [13] = system: HOP-62; assay: Growth inhibition of human HOP62 cells after 48 hrs by sulforhodamine B assay; type: functional; conditions: HOP-62, 48 h
# [14] = Growth inhibition of human HOP92 cells after 48 hrs by sulforhodamine B assay; type: functional; conditions: HOP-92, 48 h
# [15] = system: NCI-H226; assay: Growth inhibition of human NCI-H226 cells after 48 hrs by sulforhodamine B assay; type: functional; conditions: NCI-H226, 48 h
# [16] = system: NCI-H23; assay: Growth inhibition of human NCI-H23 cells after 48 hrs by sulforhodamine B assay; type: functional; conditions: NCI-H23, 48 h
# [17] = system: NCI-H460; assay: Growth inhibition of human NCI-H460 cells after 48 hrs by sulforhodamine B assay; type: functional; conditions: NCI-H460, 48 h
# [18] = system: NCI-H522; assay: Growth inhibition of human NCI-H522 cells after 48 hrs by sulforhodamine B assay; type: functional; conditions: NCI-H522, 48 h
# [19] = system: SF-268; assay: Growth inhibition of human SF268 cells after 48 hrs by sulforhodamine B assay; type: functional; conditions: SF-268, 48 h
# [20] = Growth inhibition of human SF295 cells after 48 hrs by sulforhodamine B assay; type: functional; conditions: SF-295, 48 h
# [21] = Growth inhibition of human SF539 cells after 48 hrs by sulforhodamine B assay; type: functional; conditions: SF-539, 48 h
# [22] = system: SNB-19; assay: Growth inhibition of human SNB19 cells after 48 hrs by sulforhodamine B assay; type: functional; conditions: SNB-19, 48 h
# [23] = system: SNB-75; assay: Growth inhibition of human SNB75 cells after 48 hrs by sulforhodamine B assay; type: functional; conditions: SNB-75, 48 h
# [24] = system: U-251; assay: Growth inhibition of human U251 cells after 48 hrs by sulforhodamine B assay; type: functional; conditions: U-251, 48 h
# [25] = system: IGROV-1; assay: Growth inhibition of human IGROV1 cells after 48 hrs by sulforhodamine B assay; type: functional; conditions: IGROV-1, 48 h
# [26] = Growth inhibition of human OVCAR3 cells after 48 hrs by sulforhodamine B assay; type: functional; conditions: OVCAR-3, 48 h
# [27] = Growth inhibition of human OVCAR4 cells after 48 hrs by sulforhodamine B assay; type: functional; conditions: OVCAR-4, 48 h
# [28] = Growth inhibition of human OVCAR5 cells after 48 hrs by sulforhodamine B assay; type: functional; conditions: OVCAR-5, 48 h
# [29] = Growth inhibition of human OVCAR8 cells after 48 hrs by sulforhodamine B assay; type: functional; conditions: OVCAR-8, 48 h
# [30] = system: NCI/ADR-RES; assay: Growth inhibition of human NCI/ADR-RES cells after 48 hrs by sulforhodamine B assay; type: functional
# [31] = system: SK-OV-3; assay: Growth inhibition of human SKOV3 cells after 48 hrs by sulforhodamine B assay; type: functional; conditions: SK-OV-3, 48 h
# [32] = Growth inhibition of human LOXIMVI cells after 48 hrs by sulforhodamine B assay; type: functional; conditions: LOX IMVI
# [33] = system: M14; assay: Growth inhibition of human M14 cells after 48 hrs by sulforhodamine B assay; type: functional; conditions: M14, 48 h
# [34] = system: MDA-MB-435; assay: Growth inhibition of human MDA-MB-435 cells after 48 hrs by sulforhodamine B assay; type: functional; conditions: MDA-MB-435, 48 h
# [35] = system: SK-MEL-2; assay: Growth inhibition of human SK-MEL-2 cells after 48 hrs by sulforhodamine B assay; type: functional; conditions: SK-MEL-2, 48 h
# [36] = system: SK-MEL-5; assay: Growth inhibition of human SK-MEL-5 cells after 48 hrs by sulforhodamine B assay; type: functional; conditions: SK-MEL-5, 48 h
# [37] = Growth inhibition of human UACC62 cells after 48 hrs by sulforhodamine B assay; type: functional; conditions: UACC-62, 48 h
# [38] = system: 786-0; assay: Growth inhibition of human 786-0 cells after 48 hrs by sulforhodamine B assay; type: functional; conditions: 786-0, 48 h
# [39] = system: ACHN; assay: Growth inhibition of human ACHN cells after 48 hrs by sulforhodamine B assay; type: functional
# [40] = system: CAKI-1; assay: Growth inhibition of human Caki1 cells after 48 hrs by sulforhodamine B assay; type: functional; conditions: CAKI-1, 48 h
# [41] = Growth inhibition of human RXF393 cells after 48 hrs by sulforhodamine B assay; type: functional; conditions: RXF 393, 48 h
# [42] = system: SN12C; assay: Growth inhibition of human SN12C cells after 48 hrs by sulforhodamine B assay; type: functional
# [43] = system: TK-10; assay: Growth inhibition of human TK10 cells after 48 hrs by sulforhodamine B assay; type: functional; conditions: TK-10, 48 h
# [44] = Growth inhibition of human COLO205 cells after 48 hrs by sulforhodamine B assay; type: functional; conditions: COLO 205, 48 h
# [45] = Growth inhibition of human HCT116 cells after 48 hrs by sulforhodamine B assay; type: functional; conditions: HCT-116, 48 h
# [46] = Growth inhibition of human HCT15 cells after 48 hrs by sulforhodamine B assay; type: functional; conditions: HCT-15, 48 h
# [47] = system: HT-29; assay: Growth inhibition of human HT-29 cells after 48 hrs by sulforhodamine B assay; type: functional; conditions: HT-29, 48 h
# [48] = system: KM12; assay: Growth inhibition of human KM12 cells after 48 hrs by sulforhodamine B assay; type: functional; conditions: KM12, 48 h
# [49] = system: SW-620; assay: Growth inhibition of human SW620 cells after 48 hrs by sulforhodamine B assay; type: functional; conditions: SW-620, 48 h
# [50] = Growth inhibition of human PC3 cells after 48 hrs by sulforhodamine B assay; type: functional; conditions: PC-3, 48 h
# [51] = system: DU-145; assay: Growth inhibition of human DU145 cells after 48 hrs by sulforhodamine B assay; type: functional; conditions: DU-145, 48 h
# [52] = system: MCF7; assay: Growth inhibition of human MCF7 cells after 48 hrs by sulforhodamine B assay; type: functional; conditions: MCF7, 48 h
# [53] = system: MDA-MB-231; assay: Growth inhibition of human MDA-MB-231 cells after 48 hrs by sulforhodamine B assay; type: functional; conditions: MDA-MB-231, 48 h
# [54] = Growth inhibition of human Hs 578T cells after 48 hrs by sulforhodamine B assay; type: functional
# [55] = Growth inhibition of human BT549 cells after 48 hrs by sulforhodamine B assay; type: functional; conditions: BT-549, 48 h
# [56] = system: MDA-MB-468; assay: Growth inhibition of human MDA-MB-468 cells after 48 hrs by sulforhodamine B assay; type: functional; conditions: MDA-MB-468, 48 h
# [57] = system: CCRF-CEM; assay: Growth inhibition of human CCRF-CEM cells after 48 hrs by sulforhodamine B assay; type: functional
# [58] = system: HL-60(TB); assay: Growth inhibition of human HL-60(TB) cells after 48 hrs by sulforhodamine B assay; type: functional; conditions: HL-60, 48 h
# [59] = system: K562; assay: Growth inhibition of human K562 cells after 48 hrs by sulforhodamine B assay; type: functional; conditions: K562, 48 h
# [60] = Growth inhibition of human MOLT4 cells after 48 hrs by sulforhodamine B assay; type: functional; conditions: MOLT-4, 48 h
# [61] = Growth inhibition of human […] cells after 48 hrs by sulforhodamine B assay; type: functional
# [62] = system: SR; assay: Growth inhibition of human SR cells after 48 hrs by sulforhodamine B assay; type: functional
# [63] = biological target: Vascular endothelial growth factor receptor 2 (Homo sapiens, UniProt P35968); type: cell-based, U-251
# [64] = biological target: Platelet-derived growth factor receptor beta (Homo sapiens, UniProt P09619); assay: Inhibition of PDGFR-beta in human U251 cells compound pretreated for 60 min before PDGF-BB stimulation for 10 mins by phosphotyrosine ELISA cytoblot method; type: cell-based, U-251
# Platelet-derived growth factor receptor beta, sequence (P09619 whole entry): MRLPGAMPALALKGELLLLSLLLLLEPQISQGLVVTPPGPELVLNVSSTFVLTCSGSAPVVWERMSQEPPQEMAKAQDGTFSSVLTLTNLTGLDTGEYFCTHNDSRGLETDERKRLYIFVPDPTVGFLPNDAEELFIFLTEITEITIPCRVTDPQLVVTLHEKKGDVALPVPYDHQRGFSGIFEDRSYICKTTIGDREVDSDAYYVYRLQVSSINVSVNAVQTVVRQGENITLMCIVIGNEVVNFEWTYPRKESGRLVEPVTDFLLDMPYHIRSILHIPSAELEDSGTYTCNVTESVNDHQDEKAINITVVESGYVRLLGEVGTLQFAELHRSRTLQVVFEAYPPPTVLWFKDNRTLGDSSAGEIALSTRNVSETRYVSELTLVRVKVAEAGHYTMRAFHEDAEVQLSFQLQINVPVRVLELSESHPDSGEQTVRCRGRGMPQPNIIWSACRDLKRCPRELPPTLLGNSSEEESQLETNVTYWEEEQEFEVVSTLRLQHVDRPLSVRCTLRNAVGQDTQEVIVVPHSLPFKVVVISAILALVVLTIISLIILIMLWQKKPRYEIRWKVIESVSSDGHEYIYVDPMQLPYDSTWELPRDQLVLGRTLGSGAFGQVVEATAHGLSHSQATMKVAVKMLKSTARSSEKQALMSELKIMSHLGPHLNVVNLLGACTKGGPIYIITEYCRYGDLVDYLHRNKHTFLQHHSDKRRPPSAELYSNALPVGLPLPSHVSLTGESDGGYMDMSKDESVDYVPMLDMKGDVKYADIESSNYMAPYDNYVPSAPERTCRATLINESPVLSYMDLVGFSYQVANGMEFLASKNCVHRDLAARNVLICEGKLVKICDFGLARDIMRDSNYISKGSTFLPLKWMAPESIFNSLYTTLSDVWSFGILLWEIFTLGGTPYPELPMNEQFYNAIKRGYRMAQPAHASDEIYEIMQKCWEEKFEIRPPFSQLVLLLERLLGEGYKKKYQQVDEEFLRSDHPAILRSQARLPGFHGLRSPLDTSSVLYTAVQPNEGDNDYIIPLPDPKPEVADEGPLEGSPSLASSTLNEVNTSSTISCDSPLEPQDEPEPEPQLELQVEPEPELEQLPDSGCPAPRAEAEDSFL
# Vascular endothelial growth factor receptor 2, sequence (P35968 whole entry): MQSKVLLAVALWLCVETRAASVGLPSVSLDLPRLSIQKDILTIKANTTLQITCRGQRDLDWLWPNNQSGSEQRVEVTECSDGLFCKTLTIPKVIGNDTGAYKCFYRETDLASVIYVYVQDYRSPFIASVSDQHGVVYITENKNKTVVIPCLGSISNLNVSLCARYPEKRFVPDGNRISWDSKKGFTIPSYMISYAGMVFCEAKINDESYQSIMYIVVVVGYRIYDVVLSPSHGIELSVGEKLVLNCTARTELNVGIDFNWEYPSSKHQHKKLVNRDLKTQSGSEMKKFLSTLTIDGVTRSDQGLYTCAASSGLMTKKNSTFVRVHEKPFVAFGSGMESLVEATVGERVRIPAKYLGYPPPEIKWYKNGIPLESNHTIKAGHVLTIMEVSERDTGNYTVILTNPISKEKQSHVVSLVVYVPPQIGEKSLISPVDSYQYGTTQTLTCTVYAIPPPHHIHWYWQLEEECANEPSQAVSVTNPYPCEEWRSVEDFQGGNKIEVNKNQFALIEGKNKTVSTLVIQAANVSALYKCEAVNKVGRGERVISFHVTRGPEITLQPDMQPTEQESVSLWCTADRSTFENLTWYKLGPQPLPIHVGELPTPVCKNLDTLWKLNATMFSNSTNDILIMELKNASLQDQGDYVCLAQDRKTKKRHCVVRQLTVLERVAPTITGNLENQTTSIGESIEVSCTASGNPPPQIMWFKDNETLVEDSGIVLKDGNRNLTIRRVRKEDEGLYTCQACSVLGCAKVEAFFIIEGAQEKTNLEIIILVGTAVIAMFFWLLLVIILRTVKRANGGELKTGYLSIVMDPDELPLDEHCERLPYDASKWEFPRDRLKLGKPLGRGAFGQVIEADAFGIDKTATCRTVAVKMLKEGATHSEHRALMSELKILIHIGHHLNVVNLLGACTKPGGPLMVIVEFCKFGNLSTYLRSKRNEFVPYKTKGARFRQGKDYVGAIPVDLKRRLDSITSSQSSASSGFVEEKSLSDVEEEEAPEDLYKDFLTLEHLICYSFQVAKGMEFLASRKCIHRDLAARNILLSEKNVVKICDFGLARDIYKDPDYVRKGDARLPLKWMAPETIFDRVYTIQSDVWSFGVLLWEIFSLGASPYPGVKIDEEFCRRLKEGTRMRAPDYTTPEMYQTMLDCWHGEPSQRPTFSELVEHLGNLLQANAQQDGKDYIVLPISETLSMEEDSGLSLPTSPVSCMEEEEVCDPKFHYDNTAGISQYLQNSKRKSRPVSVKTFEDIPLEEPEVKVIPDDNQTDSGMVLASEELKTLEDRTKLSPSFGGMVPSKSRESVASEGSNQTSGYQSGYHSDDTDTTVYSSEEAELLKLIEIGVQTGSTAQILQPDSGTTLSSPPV
smiles,measurement,setting,value
COc1ccc2c(c1)CCN2c1nc(C)nc2oc(C)cc12,IC50,[1],42.2 nM
same,EC50,[2],> 10000 nM
COc1ccc(N(C)c2nc(C)nc3oc(C)cc23)cc1OC,IC50,[1],9.7 nM
COc1ccc2c(ccn2-c2nc(C)nc3oc(C)cc23)c1,IC50,[1],> 300 nM
same,IC50,[3],> 300000 nM
same,EC50,[2],> 10000 nM
Cc1nc(N(C)c2ccc3c(c2)OCO3)c2cc(C)oc2n1,IC50,[1],48.9 nM
same,IC50,[3],38200 nM
same,EC50,[2],> 10000 nM
CC(=O)O[C@H]1C(=O)[C@@]2(C)[C@H]([C@H](OC(=O)c3ccccc3)[C@]3(O)C[C@H](OC(=O)[C@H](O)[C@@H](NC(=O)c4ccccc4)c4ccccc4)C(C)=C1C3(C)C)[C@]1(OC(C)=O)CO[C@@H]1C[C@@H]2O [PACLITAXEL],IC50,[4],3.3 nM
same,IC50,[5],32.9 nM
same,IC50,[6],6.3 nM
COc1cc(N(C)c2nc(C)nc3oc(C)cc23)cc(OC)c1OC,IC50,[1],> 300 nM
same,IC50,[3],> 300000 nM
same,EC50,[2],> 10000 nM
Cc1nc(N(C)c2ccc3c(c2)CCO3)c2cc(C)oc2n1,IC50,[1],38.3 nM
same,IC50,[3],14000 nM
same,EC50,[2],606 nM
same,IC50,[4],96.2 nM
same,Ratio,[7],6
same,IC50,[8],105 nM
same,IC50,[5],94 nM
same,Ratio IC50,[9],0.9
same,IC50,[6],120 nM
same,IC50,[10],155 nM
same,Ratio IC50,[11],1.3
same,GI50,[12],70 nM
same,GI50,[13],39.6 nM
same,GI50,[14],45.8 nM
same,GI50,[15],162 nM
same,GI50,[16],43.9 nM
same,GI50,[17],42 nM
same,GI50,[18],12.9 nM
same,GI50,[19],13.9 nM
same,GI50,[20],30.5 nM
same,GI50,[21],31.6 nM
same,GI50,[22],56.5 nM
same,GI50,[23],30.4 nM
same,GI50,[24],39.7 nM
same,GI50,[25],62.9 nM
same,GI50,[26],24.5 nM
same,GI50,[27],83.4 nM
same,GI50,[28],262 nM
same,GI50,[29],63 nM
same,GI50,[30],26.5 nM
same,GI50,[31],37.6 nM
same,GI50,[32],45.6 nM
same,GI50,[33],34.8 nM
same,GI50,[34],14 nM
same,GI50,[35],26.4 nM
same,GI50,[36],31.4 nM
same,GI50,[37],61.3 nM
same,GI50,[38],80.4 nM
same,GI50,[39],64.2 nM
same,GI50,[40],40.1 nM
same,GI50,[41],21.2 nM
same,GI50,[42],97.2 nM
same,GI50,[43],50.2 nM
same,GI50,[44],40.3 nM
same,GI50,[45],45.1 nM
same,GI50,[46],38.9 nM
same,GI50,[47],32.4 nM
same,GI50,[48],40.1 nM
same,GI50,[49],41.6 nM
same,GI50,[50],52.2 nM
same,GI50,[51],44.1 nM
same,GI50,[52],40.2 nM
same,GI50,[53],148 nM
same,GI50,[54],31 nM
same,GI50,[55],77.2 nM
same,GI50,[56],22.1 nM
same,GI50,[57],58.1 nM
same,GI50,[58],27.6 nM
same,GI50,[59],31.7 nM
same,GI50,[60],76.7 nM
same,GI50,[61],54.2 nM
same,GI50,[62],36.6 nM
COc1ccc(/C=C\c2cc(OC)c(OC)c(OC)c2)cc1O [COMBRETASTATIN A4],EC50,[2],9.8 nM
same,IC50,[4],5 nM
same,IC50,[6],6.9 nM
same,IC50,[10],3 nM
COc1ccc(N(C)c2nc(C)nc3oc(C)cc23)c(OC)c1,IC50,[63],32.3 nM
same,IC50,[64],40.4 nM
same,IC50,[1],17.1 nM
